# Assay results: patent US20260207759A1, “COMPOSITION OF CD40-BINDING MOLECULE AND PHARMACEUTICAL USE THEREOF” (SUZHOU SUNCADIA BIOPHARMACEUTICALS CO., LTD., priority 2022, published 2026)
# Like-named read-outs stand apart in the source and are kept apart here.
# How the values were obtained:
# [1] = target: T1, CD40 (Homo sapiens, UniProt P25942); assay: FACS binding of human-rabbit chimeric anti-CD40 antibodies to Raji cells
# Protocol: Raji cells are of a tumor cell line that overexpresses human CD40. 2E5 Raji cells were inoculated onto a 96-well plate. 100 μL of a test antibody was added, with the highest final concentration of 100 nM. The antibody was 5-fold diluted to 8 concentrations. The plate was incubated at 4° C. for 1 h. The plate was washed once with a washing buffer, and an AF647-conjugated anti-human IgG antibody (Jackson Immunoresearch Laborotories, Cat. #205-609-088) was added at a dilution ratio of 1:500. The plate was incubated at 4° C. for 30 min. The plate was washed once with the washing buffer, and fluorescence intensity was measured using a flow cytometer. The binding EC50 values of the anti-CD40 antibodies for CD40 were calculated. The anti-CD40 antagonistic antibody CFZ533 (i.e., iscalimab, Nova) was used as a positive control, and the heavy and light chain variable region sequences were derived from sequence 5 and sequence 2 of U.S. Pat. No. 8,277,810B, respectively.
# [2] = target: T2, Raji cell surface human CD40 (Homo sapiens, UniProt P25942); assay: FACS binding of humanized anti-CD40 antibodies to Raji cells
# T2 construct: Raji cells highly express human CD40 on the cell surface; endogenous in cells; host or cells: Raji cells
# T2 sequence (P25942 21-277): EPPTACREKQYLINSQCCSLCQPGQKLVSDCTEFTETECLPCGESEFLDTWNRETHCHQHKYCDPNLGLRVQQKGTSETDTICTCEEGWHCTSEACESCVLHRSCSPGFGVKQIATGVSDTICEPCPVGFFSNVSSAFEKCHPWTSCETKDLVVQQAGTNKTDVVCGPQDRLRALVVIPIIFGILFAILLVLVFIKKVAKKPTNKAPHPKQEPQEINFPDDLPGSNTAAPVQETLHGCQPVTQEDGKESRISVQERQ
# Protocol: Raji cells highly express human CD40 on the cell surface and thus can be used to detect the binding properties of CD40 antagonistic antibodies to the cell surface human CD40.
# Raji cells were plated at 1.5E5 cells/well, and various concentrations of CD40 antagonistic antibodies were added. The plate was incubated at 4° C. for 1 h. After two washes with FACS buffer (PBS+2% FBS), a secondary antibody (Alexa Flour488 conjugated anti-human IgG (H+L) antibody) was added, and the plate was incubated at 4° C. for 0.5 h. After two washes with FACS buffer, the fluorescence intensity on the cell surface was measured by flow cytometry (BD FACS Celesta).
# [3] = test system: human CD40 transgenic mice; assay: Mouse skin graft rejection model (antibodies, tacrolimus combination); type: in vivo
# From the text: Male Balb/c mice, 6 weeks old, were purchased from the Laboratory Animal Management Department, Shanghai Institute of Planned Parenthood Research. Housing environment: SPF; certification number: 20180006023393.
# On day-2 of the experiment, the mice were intraperitoneally injected with tacrolimus FK506 or CD40 antagonistic antibodies. On day 0 of the experiment, donor Balb/c mice and C57BL6/J mice were anesthetized with 4% chloral hydrate. The tails of the donor mice were removed, and full circles of skin, 1 cm in length, were isolated from the tails. The hair on the acceptor mice's back was removed, and an incision was made along the skin layer. An equal area of skin was removed while preserving the back fat and connective tissue. The donor skin was placed on the acceptor mice's incision site, and the incision was closed with glue. The mice were then placed back in cages to recover.
# The mice were dosed according to the administration regimens in Table 16. After 7 days of recovery, the mouse skin survival was observed daily and rejection scores were recorded.
# [4] = target: T1, CD40; assay: DC cell activation assay system (monocyte-derived DC, CD40L-induced CD80/CD86, IL-12/23 p40, TNFα); type: cell-based; parameters: endogenous in cells; host or cells: human PBMCs (B cells); DCs differentiated from human CD14+ monocytes
# From the text: CD40 is highly expressed on dendritic cells (DCs), and CD40L, upon binding to CD40, can induce DC activation, up-regulate the expression of multiple activation markers on the DC cell surface, and promote the secretion of multiple inflammatory factors from DCs, further amplifying immune responses. CD40 antagonistic antibodies block the binding of CD40L to CD40, thereby eliminating the immune activation process of DC cells.
# Monocytes were sorted and enriched from fresh primary human peripheral blood PBMCs using the EsaySep™ human CD14 sorting kit (Stemcell, 19359), and differentiated for 6 days with RPMI-1640 medium (10% FBS and 1% penicillin-streptomycin), 50 ng/ml IL-4 (PeproTech, 200-04), and 50 ng/mL GM-CSF (PeproTech, 300-03). On day 7, the differentiated DC cells were plated at 1E5/well into a 96-well cell culture plate. Serially diluted test antibodies were added to the wells, and the cells were co-incubated at 37° C. in 5% CO2 for 0.5 h. CD40L-his and an anti-His antibody were then added to each well at final concentrations. After 48 h of culture, the level of DC cell activation was measured by flow cytometry: after centrifugation, the supernatant was removed, and the cells were washed twice with FACS buffer (PBS+2% FBS) and stained at room temperature for 15 min with 100 μL of Fixable viability dye EF780 (Invitrogen, 65086514) diluted at 1:1000. The cells were washed twice and then blocked at room temperature for 10 min with 100 μL of human Fc blocker (BD, 564220) diluted at 1:200. After centrifugation, the cells were incubated at 4° C. for 0.5 h with flow cytometry antibodies (Alexa Fluor® 700 anti-human CD11c (Biolegend, 337220), Brilliant Violet 421™ anti-human CD80 (Biolegend, 305221), and APC anti-human CD86 (Biolegend, 305412)) diluted at 1:200. After centrifugation, the supernatant was removed, the cells were washed twice with FACS buffer and then resuspended in 200 μL of PBS, and the fluorescence intensity on the cell surface was measured by a flow cytometer (BD FACS Celesta).
# In addition, the level of cytokine secretion in the supernatant was measured after 24 h (TNFα, Cisbio, 62[…]) and 48 h (IL-12/23 p40, Novus, VAL121) of culture.
# With reference to the method in Example 11, the inhibitory activity of the anti-CD40 antibody 9E6-L4H2-AAYTE carrying the AAYTE mutation in the Fc in the DC cell activation assay system was measured.
# T1 sequence (P25942 21-277): as above
substance,measurement,setting,value
"CFZ533: anti-CD40 antagonistic antibody CFZ533 (i.e., iscalimab), positive control, variable regions from U.S. Pat. No. 8,277,810B",EC50,[1],2.41 nM
same,EC50,[2],1.01 nM
same,Day-15 skin graft survival rate (%),[3]; 3 mpk ip,0%
same,"Skin graft score, 8 days","[3]; 3 mpk, score 3 (best) to 0 (rejected)",2.7
same,"Skin graft score, 10 days","[3]; 3 mpk, score 3 to 0",2.1
same,"Skin graft score, 15 days","[3]; 3 mpk, score 3 to 0",0
same,"Skin graft score, 20 days","[3]; 3 mpk, score 3 to 0",0
same,Day-15 skin graft survival rate (%),[3]; 10 mpk ip,0%
same,"Skin graft score, 8 days","[3]; 10 mpk, score 3 to 0",2.9
same,"Skin graft score, 10 days","[3]; 10 mpk, score 3 to 0",2.1
same,"Skin graft score, 15 days","[3]; 10 mpk, score 3 to 0",0
same,"Skin graft score, 20 days","[3]; 10 mpk, score 3 to 0",0
same,IC50,"[4]; 48 h, read-out: IC50 (nM) in DC cell activation assay system, CD80 MFI",1.19 nM
same,IC50,"[4]; 48 h, read-out: IC50 (nM) in DC cell activation assay system, CD86 MFI",1.93 nM
same,IC50,"[4]; supernatant, 24 h, read-out: IC50 (nM) in DC cell activation assay system, TNFα",0.35 nM
same,IC50,"[4]; supernatant, 48 h, read-out: IC50 (nM) in DC cell activation assay system, IL-12/23 p40",0.68 nM
